Source: patent US20240158446A1, “CYCLIC COMPOUND HAVING SELECTIVE INHIBITORY ACTION ON KRAS OVER HRAS AND NRAS” (CHUGAI SEIYAKU KABUSHIKI KAISHA, priority 2021, published 2024)
Where two headings read alike, the source gives them in different places.

Columns and labels:
[1] = target: GDP-bound HRAS wild-type protein (Homo sapiens, UniProt P01112); assay: Binding to HRAS by surface plasmon resonance (SPR), Single Cycle Kinetics; settings: for HRAS/KRAS (ratio of KD value for HRAS to KD value for KRAS) / ratio of the KD value with respect to GDP-bound HRAS wild-type protein to the KD value with respect to KRAS: SPR; for HRAS/KRAS (ratio of KD value for HRAS to KD value for KRAS): GDP-bound HRAS wild-type protein vs GDP-bound KRAS wild-type protein
[2] = target: GDP-bound KRAS wild-type protein (Homo sapiens, UniProt P01116); assay: Binding to KRAS by surface plasmon resonance (SPR), Single Cycle Kinetics
[3] = test system: human lung cancer strain NCI-H441;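 also: cell proliferation inhibition after four days measured by CellTiter-Glo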
[4] = target: GDP-bound NRAS wild-type protein (Homo sapiens, UniProt P01111); assay: Binding to NRAS by surface plasmon resonance (SPR), Single Cycle Kinetics; settings: for NRAS/KRAS (ratio of KD value for NRAS to KD value for KRAS) / ratio of the KD value with respect to GDP-bound NRAS wild-type protein to the KD value with respect to KRAS: SPR; for NRAS/KRAS (ratio of KD value for NRAS to KD value for KRAS): GDP-bound NRAS wild-type protein vs GDP-bound KRAS wild-type protein
[5] = SPR, Single Cycle Kinetics, GDP-bound KRAS wild-type protein, read-out: KRAS KD
[6] = read-out: NCI-H441 cell proliferation inhibitory activity, 50% proliferation inhibitory concentration (IC50 value), NCI-H441, four days, CellTiter-Glo
[7] = SPR, Single Cycle Kinetics, 1:1 binding model, GDP-bound KRAS wild-type protein, read-out: KRAS KD

Chain of GDP-bound NRAS wild-type protein (P01111 whole entry): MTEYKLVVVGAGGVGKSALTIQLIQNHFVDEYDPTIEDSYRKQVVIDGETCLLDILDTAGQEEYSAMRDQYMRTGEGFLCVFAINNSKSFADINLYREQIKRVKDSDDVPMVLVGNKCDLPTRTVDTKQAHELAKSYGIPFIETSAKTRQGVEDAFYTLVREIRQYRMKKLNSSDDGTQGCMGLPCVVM
Chain of GDP-bound HRAS wild-type protein (P01112 whole entry): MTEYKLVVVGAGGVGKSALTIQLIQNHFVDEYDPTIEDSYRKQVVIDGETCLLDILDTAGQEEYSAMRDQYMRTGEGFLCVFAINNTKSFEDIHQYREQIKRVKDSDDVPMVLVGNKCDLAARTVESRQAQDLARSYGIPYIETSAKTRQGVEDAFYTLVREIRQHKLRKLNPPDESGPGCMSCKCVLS
Chain of GDP-bound KRAS wild-type protein (P01116 whole entry): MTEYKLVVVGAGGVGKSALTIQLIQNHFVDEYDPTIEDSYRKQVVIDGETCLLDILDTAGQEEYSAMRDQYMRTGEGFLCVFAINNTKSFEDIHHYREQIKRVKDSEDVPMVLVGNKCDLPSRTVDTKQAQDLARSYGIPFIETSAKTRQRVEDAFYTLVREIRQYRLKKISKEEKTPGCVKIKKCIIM

| SMILES | HRAS/KRAS (ratio of KD value for HRAS to KD value for KRAS) [1] | Kd [2, 5] | IC50 [3] | NRAS/KRAS (ratio of KD value for NRAS to KD value for KRAS) [4] | further results |
| --- | --- | --- | --- | --- | --- |
| CCCCN1CC(=O)NC2(CCC2)C(=O)N(C)[C@@H](C2CCCC2)C(=O)N(C)[C@H](C(=O)N(C)C)CC(=O)N(C)[C@@H](CC)C(=O)N[C@@H]([C@@H](C)CC)C(=O)N(C)CC(=O)N(C)[C@H]2C/C=C\CCN(C2=O)[C@@H](Cc2ccc(C(F)(F)F)cc2)C(=O)N(C)CC(=O)N[C@@H](CCc2cc(F)c(C(F)(F)F)c(F)c2)C1=O [PP1142] | A (a compound having 10 or more and less than 20 is denoted as A) | 0.65 nM | 322 nM | A (a compound having 10 or more and less than 20 is denoted as A) | – |
| CCC(CC)[C@H]1C(=O)N(C)[C@H](C(=O)N(C)C)CC(=O)N(C)[C@@H](COC)C(=O)N[C@@H]([C@@H](C)CC)C(=O)N(C2CC2)CC(=O)N(C)[C@H]2C/C=C\CCN(C2=O)[C@@H](Cc2ccc(C(F)F)cc2)C(=O)N(C)CC(=O)N[C@@H](CCc2cc(F)c(C(F)(F)F)c(F)c2)C(=O)N2C[C@H](OC3CCCC3)C[C@H]2C(=O)NC2(CC(C)(C)C2)C(=O)N1C [PP2633] | – | – | 29 nM | – | HRAS/KRAS (ratio of KD value with respect to GDP-bound HRAS wild-type protein to KD value with respect to KRAS) ([1]; SPR KD ratio HRAS/KRAS, class symbols): A (a compound having 10 or more and less than 20 is denoted as A); Kd ([2]; SPR Single Cycle Kinetics, GDP-bound KRAS wild-type protein, 1:1 binding model, read-out: KRAS KD): 0.64 nM; NRAS/KRAS (ratio of KD value with respect to GDP-bound NRAS wild-type protein to KD value with respect to KRAS) ([4]; SPR KD ratio NRAS/KRAS, class symbols): AA (a compound having 20 or more is denoted as AA) |
| CCO[C@@H]1C[C@H]2C(=O)NC3(CCC3)C(=O)N(C)[C@@H](C3CCCC3)C(=O)N(C)[C@H](C(=O)N3CCOCC3)CC(=O)N(C)[C@@H](Cc3ccc(C#N)cc3)C(=O)N[C@@H]([C@@H](C)CC)C(=O)N(C)CC(=O)N(C)[C@H]3CCCCCN(C3=O)[C@@H](Cc3ccc(C(F)(F)F)cc3)C(=O)N(C)CC(=O)N[C@@H](CCc3cc(F)c(C(F)(F)F)c(F)c3)C(=O)N2C1 [PP1167] | B (a compound having 3 or more and less than 10 is denoted as B) | 0.5 nM | 134 nM | B (a compound having 3 or more and less than 10 is denoted as B) | – |
| CCCO[C@@H]1C[C@H]2C(=O)NC3(CC(C)(C)C3)C(=O)N(C)[C@@H](C3CCCC3)C(=O)N(C)[C@H](C(=O)N(C)CC)CC(=O)N(C)[C@H]3CCCc4ccc(cc4)C[C@@H](C(=O)N(C)CC(=O)N[C@@H](CCc4ccc(C(F)(F)F)c(OC)c4)C(=O)N2C1)N1CC/C=C\C[C@@H](C1=O)N(C)C(=O)CN(C1CC1)C(=O)[C@H]([C@@H](C)CC)NC3=O [PP3088] | B (a compound having 3 or more and less than 10 is denoted as B) | 0.34 nM | – | B (a compound having 3 or more and less than 10 is denoted as B) | ratio of the KD value with respect to GDP-bound HRAS wild-type protein to the KD value with respect to KRAS [1]: B (a compound having 3 or more and less than 10 is denoted as B); IC50 [3, 6]: 15.1 nM; ratio of the KD value with respect to GDP-bound NRAS wild-type protein to the KD value with respect to KRAS [4]: B (a compound having 3 or more and less than 10 is denoted as B) |
| CCC[C@H]1C(=O)N[C@@H]([C@@H](C)CC)C(=O)N(C2CC2)CC(=O)N(C)[C@H]2C/C=C\CCN(C2=O)[C@@H](CC2CCCCC2)C(=O)N(C)CC(=O)N[C@@H](CCc2ccc(C(F)(F)F)c(OC)c2)C(=O)N2C[C@@H](C)C[C@H]2C(=O)N(C)C2(CCC2)C(=O)N(C)[C@@H](C2CCCC2)C(=O)N(C)[C@H](C(=O)N(C)C)CC(=O)N1C [PP2372] | B (a compound having 3 or more and less than 10 is denoted as B) | 0.79 nM | 3.3 nM | A (a compound having 10 or more and less than 20 is denoted as A) | – |
| CCC[C@H]1C(=O)N[C@@H](CC(C)C)C(=O)N(C2CC2)CC(=O)N(C)[C@H]2C/C=C\CCN(C2=O)[C@@H](Cc2ccc(C)cc2)C(=O)N(C)CC(=O)N[C@@H](CCc2ccc(C(F)(F)F)c(OC)c2)C(=O)N2C[C@H](OCC)C[C@H]2C(=O)NC2(CC(C)(C)C2)C(=O)N(C)[C@@H](C2CCCC2)C(=O)N(C)[C@H](C(=O)N(C)C)CC(=O)N1C [PP2510] | B (a compound having 3 or more and less than 10 is denoted as B) | 3.9 nM | 180 nM | A (a compound having 10 or more and less than 20 is denoted as A) | – |
| CCO[C@@H]1C[C@H]2C(=O)NC3(CCC3)C(=O)N(C)[C@@H](C3CCCC3)C(=O)N(C)[C@H](C(=O)N(C)C)CC(=O)N(C)[C@@H](CC3CCCC3)C(=O)N[C@@H]([C@@H](C)CC)C(=O)N(C)CC(=O)N(C)[C@H]3C/C=C\CCN(C3=O)[C@@H](Cc3ccc(C)cc3)C(=O)N(C)CC(=O)N[C@@H](CCc3cc(F)c(C(F)(F)F)c(F)c3)C(=O)N2C1 [PP1411, (2S,8S,12R,14S,20S,23S,27S,30S,36S,38Z)-20-cyclopentyl-27-(cyclopentylmethyl)-8-[2-[3,5-difluoro-4-(trifluoromethyl)phenyl]ethyl]-12-ethoxy-N,N,4,19,22,26,32,35-octamethyl-30-[(1S)-1-methylpropyl]-3,6,9,15,18,21,25,28,31,34,42-undecaoxo-2-(p-tolylmethyl)spiro[1,4,7,10,16,19,22,26,29,32,35-undecazatricyclo[34.5.1.0^10,14]dotetracont-38-ene-17,1′-cyclobutane]-23-carboxamide] | – | – | 6 nM | – | HRAS/KRAS (ratio of KD value for HRAS to KD value for KRAS) ([1]; KD ratio class): B (a compound having 3 or more and less than 10 is denoted as B); Kd [2, 7]: 0.08 nM; NRAS/KRAS (ratio of KD value for NRAS to KD value for KRAS) ([4]; KD ratio class): A (a compound having 10 or more and less than 20 is denoted as A) |
| CCC[C@H]1C(=O)N[C@@H]([C@@H](C)CC)C(=O)N2CCC[C@H]2C(=O)N(C)[C@H]2C/C=C\CCN(C2=O)[C@@H](Cc2ccc(C)cc2)C(=O)N(C)CC(=O)N[C@@H](CCc2ccc(C(F)(F)F)c(OC)c2)C(=O)N2C[C@H](OCC)C[C@H]2C(=O)N(C)C2(CCC2)C(=O)N(C)[C@@H](C2CCCC2)C(=O)N(C)[C@H](C(=O)N2CCCC2)CC(=O)N1C [PP3102, (1S,4S,10S,13S,17S,20S,26S,28R,32S,38S,42Z)-20-cyclopentyl-28-ethoxy-32-[2-[3-methoxy-4-(trifluoromethyl)phenyl]ethyl]-2,14,18,21,24,36-hexamethyl-10-[(1S)-1-methylpropyl]-13-propyl-38-(p-tolylmethyl)-17-(pyrrolidine-1-carbonyl)spiro[2,8,11,14,18,21,24,30,33,36,39-undecazatetracyclo[37.5.1.0^4,8.0^26,30]pentatetracont-42-ene-23,1′-cyclobutane]-3,9,12,15,19,22,25,31,34,37,45-undecone] | A (a compound having 10 or more and less than 20 is denoted as A) | 0.18 nM | – | A (a compound having 10 or more and less than 20 is denoted as A) | ratio of the KD value with respect to GDP-bound HRAS wild-type protein to the KD value with respect to KRAS [1]: A (a compound having 10 or more and less than 20 is denoted as A); Kd ([2]; SPR, Single Cycle Kinetics, 1:1 binding model, read-out: KD value with respect to GDP-bound KRAS wild-type protein): 0.18 nM; IC50 [3, 6]: 6.7 nM; ratio of the KD value with respect to GDP-bound NRAS wild-type protein to the KD value with respect to KRAS [4]: A (a compound having 10 or more and less than 20 is denoted as A) |
| CCO[C@@H]1C[C@H]2C(=O)NC3(CC(C)(C)C3)C(=O)N(C)[C@@H](C(CC)CC)C(=O)N(C)[C@H](C(=O)N(C)C)CC(=O)N(C)[C@@H](CC3CC3)C(=O)N[C@@H]([C@@H](C)CC)C(=O)N(C)CC(=O)N(C)[C@H]3C/C=C\CCN(C3=O)[C@@H](CC3CCC(F)(F)CC3)C(=O)N(C)CC(=O)N[C@@H](CCc3ccc(C(F)(F)F)c(Cl)c3)C(=O)N2C1 [PP2495] | A (a compound having 10 or more and less than 20 is denoted as A) | 0.84 nM | 17.4 nM | A (a compound having 10 or more and less than 20 is denoted as A) | – |
| CCO[C@@H]1C[C@H]2C(=O)NC3(CCC3)C(=O)N(C)[C@@H](C3CCCC3)C(=O)N(C)[C@H](C(=O)N(C)C)CC(=O)N(C)[C@@H](CC3CCCC3)C(=O)N[C@@H]([C@@H](C)CC)C(=O)N(C)CC(=O)N(C)[C@H]3C/C=C\CCN(C3=O)[C@@H](CC3CCC(F)(F)CC3)C(=O)N(C)CC(=O)N[C@@H](CCc3cc(F)c(C(F)(F)F)c(F)c3)C(=O)N2C1 [PP1458] | – | – | 18.2 nM | – | HRAS/KRAS (ratio of KD value for HRAS to KD value for KRAS) ([1]; KD ratio class): A (a compound having 10 or more and less than 20 is denoted as A); Kd [2, 7]: 0.15 nM; NRAS/KRAS (ratio of KD value for NRAS to KD value for KRAS) ([4]; KD ratio class): A (a compound having 10 or more and less than 20 is denoted as A) |
